Molecular target: T1, human RXFP1 (Homo sapiens, UniProt Q9HBX9)
T1 construct: expressed in transfected cells
T1 sequence (Q9HBX9 1-757): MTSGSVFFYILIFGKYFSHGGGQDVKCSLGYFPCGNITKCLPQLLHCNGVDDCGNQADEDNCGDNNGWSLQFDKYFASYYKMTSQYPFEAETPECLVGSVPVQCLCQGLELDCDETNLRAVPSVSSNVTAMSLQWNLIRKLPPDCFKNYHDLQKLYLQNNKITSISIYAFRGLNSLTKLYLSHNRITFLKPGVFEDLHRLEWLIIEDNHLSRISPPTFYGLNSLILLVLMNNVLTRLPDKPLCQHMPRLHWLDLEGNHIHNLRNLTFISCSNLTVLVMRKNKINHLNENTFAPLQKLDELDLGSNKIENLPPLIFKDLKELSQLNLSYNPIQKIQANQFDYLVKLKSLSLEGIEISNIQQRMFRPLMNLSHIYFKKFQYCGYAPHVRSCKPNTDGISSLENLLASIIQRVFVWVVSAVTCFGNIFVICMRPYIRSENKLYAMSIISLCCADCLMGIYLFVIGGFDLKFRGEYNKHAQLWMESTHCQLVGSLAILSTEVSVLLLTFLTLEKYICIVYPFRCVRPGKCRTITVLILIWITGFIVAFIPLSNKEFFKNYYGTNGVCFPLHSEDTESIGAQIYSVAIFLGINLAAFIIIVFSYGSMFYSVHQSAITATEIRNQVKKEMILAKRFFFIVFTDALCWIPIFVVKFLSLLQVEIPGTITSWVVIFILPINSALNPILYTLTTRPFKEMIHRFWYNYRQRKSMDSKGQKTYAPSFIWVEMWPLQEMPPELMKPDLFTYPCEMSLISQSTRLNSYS
Assay: hRXFP1 HEK293 cAMP assay (HTRF)
Format: cell-based
Settings: HEK293 cells stably expressing human RXFP1; 30 min at rt; intracellular cAMP by HTRF
Description: RXFP1 Cyclic Adenosine Monophosphate (cAMP) Assays. Human embryonic kidney cells 293 (HEK293) cells and HEK293 cells stably expressing human RXFP1, were cultured in MEM medium supplemented with 10% qualified FBS, and 300 μg/ml hygromycin (Life Technologies). Cells were dissociated and suspended in assay buffer. The assay buffer was HBSS buffer (with calcium and magnesium) containing 20 mM HEPES, 0.05% BSA, and 0.5 mM IBMX. Cells (3000 cells per well, except 1500 cell per well for HEK293 cells stably expressing human RXFP1) were added to 384-well Proxiplates (Perkin-Elmer). Cells were immediately treated with test compounds in DMSO (2% final) at final concentrations in the range of 0.010 nM to 50 μM. Cells were incubated for 30 min at rt. The level of intracellular cAMP was determined using the HTRF HiRange cAMP assay reagent kit (Cisbio) according to manufacturer's instructions. Solutions of cryptate conjugated anti-cAMP and d2 fluorophore-labelled cAMP were made in a supplied lysis buffer separately. Upon completion of the reaction, the cells were lysed with equal volume of the d2-cAMP solution and anti-cAMP solution. After a 1 h rt incubation, time-resolved fluorescence intensity was measured using the Envision (Perkin-Elmer) at 400 nm excitation and dual emission at 590 nm and 665 nm. A calibration curve was constructed with an external cAMP standard at concentrations ranging from 2.7 μM to 0.1 pM by plotting the fluorescent intensity ratio from 665 nm emission to the intensity from the 590 nm emission against cAMP concentrations. The potency and activity of a compound to […] cAMP production was then determined by fitting to a 4-parametric logistic equation from a plot of cAMP level versus compound concentrations.
The examples disclosed below were tested in the human RXFP1 (hRXFP1) HEK293 cAMP assay described above and found to have agonist activity.

Structure (SMILES)	EC50 [nM]
COc1ccc(C2CCCC(C)(O)C2)cc1C(=O)Nc1c(C(=O)Nc2ccc(F)c(C(F)(F)F)c2)sc2cc(C(F)(F)F)ccc12 (single isomer, unassigned) [Example 35, N-(4-fluoro-3-(trifluoromethyl)phenyl)-3-(5-(3-hydroxy-3-methylcyclohexyl)-2-methoxybenzamido)-6-(trifluoromethyl)benzo[b]thiophene-2-carboxamide]	794
COc1ccc(C2CCCC(C)(O)C2)cc1C(=O)Nc1c(C(=O)Nc2ccc(F)c(C(F)(F)F)c2)sc2cc(C(F)(F)F)ccc12 (single isomer, unassigned) [Example 36, N-(4-fluoro-3-(trifluoromethyl)phenyl)-3-(5-(3-hydroxy-3-methylcyclohexyl)-2-methoxybenzamido)-6-(trifluoromethyl)benzo[b]thiophene-2-carboxamide]	244
COc1ccc(C2CCC(C)(O)CC2)cc1C(=O)Nc1c(C(=O)Nc2ccc(F)c(C(F)(F)F)c2)sc2cc(C(F)(F)F)ccc12 (single isomer, unassigned) [Example 37, N-(4-fluoro-3-(trifluoromethyl)phenyl)-3-(5-(4-hydroxy-4-methylcyclohexyl)-2-methoxybenzamido)-6-(trifluoromethyl)benzo[b]thiophene-2-carboxamide]	158
COc1ccc(C2CCC(C)(O)CC2)cc1C(=O)Nc1c(C(=O)Nc2ccc(F)c(C(F)(F)F)c2)sc2cc(C(F)(F)F)ccc12 (single isomer, unassigned) [Example 38, N-(4-fluoro-3-(trifluoromethyl)phenyl)-3-(5-(4-hydroxy-4-methylcyclohexyl)-2-methoxybenzamido)-6-(trifluoromethyl)benzo[b]thiophene-2-carboxamide]	194
COc1ccc(CCCO)cc1C(=O)Nc1c(C(=O)NC2CCCC(C(F)(F)F)C2)sc2cc(C(F)(F)F)ccc12 (single isomer, unassigned) [Example 44, 3-(5-(3-hydroxypropyl)-2-methoxybenzamido)-6-(trifluoromethyl)-N-(3-(trifluoromethyl)cyclohexyl) benzo[b]thiophene-2-carboxamide]	3740
COc1ccc(C2CC2C(=O)O)cc1C(=O)Nc1c(C(=O)Nc2ccc(F)c(C(F)(F)F)c2)sc2cc(C(F)(F)F)ccc12 (single isomer, unassigned) [Example 47, 2-(3-((2-((4-fluoro-3-(trifluoromethyl)phenyl)carbamoyl)-6-(trifluoromethyl)benzo[b]thiophen-3-yl)carbamoyl)-4-methoxyphenyl) cyclopropane-1-carboxylic acid]	1060
COc1ccc(C2CC2C(=O)O)cc1C(=O)Nc1c(C(=O)Nc2ccc(F)c(C(F)(F)F)c2)sc2cc(C(F)(F)F)ccc12 (single isomer, unassigned) [Example 48, 2-(3-((2-((4-fluoro-3-(trifluoromethyl)phenyl)carbamoyl)-6-(trifluoromethyl)benzo[b]thiophen-3-yl)carbamoyl)-4-methoxyphenyl) cyclopropane-1-carboxylic acid]	58.4
COc1ccc(C2=NOC3CN(CC(C)(C)O)CC23)cc1C(=O)Nc1c(C(=O)Nc2ccc(F)c(C(F)(F)F)c2)sc2cc(C(F)(F)F)ccc12 (single isomer, unassigned) [Example 53, N-(4-fluoro-3-(trifluoromethyl)phenyl)-3-(5-(5-(2-hydroxy-2-methylpropyl)-3a, 5,6,6a-tetrahydro-4H-pyrrolo[3,4-d]isoxazol-3-yl)-2-methoxybenzamido)-6-(trifluoromethyl)benzo[b]thiophene-2-carboxamide]	71
COc1ccc(C2=NOC3CN(CC(C)(C)O)CC23)cc1C(=O)Nc1c(C(=O)Nc2ccc(F)c(C(F)(F)F)c2)sc2cc(C(F)(F)F)ccc12 (single isomer, unassigned) [Example 54, N-(4-fluoro-3-(trifluoromethyl)phenyl)-3-(5-(5-(2-hydroxy-2-methylpropyl)-3a, 5,6,6a-tetrahydro-4H-pyrrolo[3,4-d]isoxazol-3-yl)-2-methoxybenzamido)-6-(trifluoromethyl)benzo[b]thiophene-2-carboxamide]	306
COc1ccc(C2=NOC3CC(C(C)(C)O)CC23)cc1C(=O)Nc1c(C(=O)Nc2ccc(F)c(C(F)(F)F)c2)sc2cc(C(F)(F)F)ccc12 (single isomer, unassigned) [Example 55, N-(4-fluoro-3-(trifluoromethyl)phenyl)-3-(5-(5-(2-hydroxypropan-2-yl)-3a, 5,6,6a-tetrahydro-4H-cyclopenta[d]isoxazol-3-yl)-2-methoxybenzamido)-6-(trifluoromethyl)benzo[b]thiophene-2-carboxamide]	320
COc1ccc(C2=NOC3CC(C(C)(C)O)CC23)cc1C(=O)Nc1c(C(=O)Nc2ccc(F)c(C(F)(F)F)c2)sc2cc(C(F)(F)F)ccc12 (single isomer, unassigned) [Example 56, N-(4-fluoro-3-(trifluoromethyl)phenyl)-3-(5-(5-(2-hydroxypropan-2-yl)-3a, 5,6,6a-tetrahydro-4H-cyclopenta[d]isoxazol-3-yl)-2-methoxybenzamido)-6-(trifluoromethyl)benzo[b]thiophene-2-carboxamide]	9.5
COc1ccc(C2CCCC(NC3COC3)C2)cc1C(=O)Nc1c(C(=O)Nc2ccc(F)c(C(F)(F)F)c2)sc2cc(C(F)(F)F)ccc12 (single isomer, unassigned) [Example 60, N-(4-fluoro-3-(trifluoromethyl)phenyl)-3-(2-methoxy-5-(3-(oxetan-3-ylamino)cyclohexyl)benzamido)-6-(trifluoromethyl) benzo[b] thiophene-2-carboxamide]	743
COc1ccc(C2CCCC(NC3COC3)C2)cc1C(=O)Nc1c(C(=O)Nc2ccc(F)c(C(F)(F)F)c2)sc2cc(C(F)(F)F)ccc12 (single isomer, unassigned) [Example 61, N-(4-fluoro-3-(trifluoromethyl)phenyl)-3-(2-methoxy-5-(3-(oxetan-3-ylamino)cyclohexyl)benzamido)-6-(trifluoromethyl) benzo[b] thiophene-2-carboxamide]	599
COc1ccc(C2CCCC(NC3COC3)C2)cc1C(=O)Nc1c(C(=O)Nc2ccc(F)c(C(F)(F)F)c2)sc2cc(C(F)(F)F)ccc12 (single isomer, unassigned) [Example 62, N-(4-fluoro-3-(trifluoromethyl)phenyl)-3-(2-methoxy-5-(3-(oxetan-3-ylamino)cyclohexyl)benzamido)-6-(trifluoromethyl) benzo[b] thiophene-2-carboxamide]	1460
COc1ccc(C2CCCC(NC3COC3)C2)cc1C(=O)Nc1c(C(=O)Nc2ccc(F)c(C(F)(F)F)c2)sc2cc(C(F)(F)F)ccc12 (single isomer, unassigned) [Example 63, N-(4-fluoro-3-(trifluoromethyl)phenyl)-3-(2-methoxy-5-(3-(oxetan-3-ylamino)cyclohexyl)benzamido)-6-(trifluoromethyl) benzo[b] thiophene-2-carboxamide]	2060
COc1ccc(N2CCCC(CC(=O)O)C2)cc1C(=O)Nc1c(C(=O)Nc2ccc(F)c(C(F)(F)F)c2)sc2cc(C(F)(F)F)ccc12 (single isomer, unassigned) [Example 64, 2-(1-(3-((2-((4-fluoro-3-(trifluoromethyl)phenyl)carbamoyl)-6-(trifluoromethyl)benzo[b]thiophen-3-yl)carbamoyl)-4-methoxyphenyl)piperidin-3-yl)acetic acid]	293
COc1ccc(N2CCCC(CC(=O)O)C2)cc1C(=O)Nc1c(C(=O)Nc2ccc(F)c(C(F)(F)F)c2)sc2cc(C(F)(F)F)ccc12 (single isomer, unassigned) [Example 65, 2-(1-(3-((2-((4-fluoro-3-(trifluoromethyl)phenyl)carbamoyl)-6-(trifluoromethyl)benzo[b]thiophen-3-yl)carbamoyl)-4-methoxyphenyl)piperidin-3-yl)acetic acid]	662
